From PMC7122821, “Molecular basis of P[II] major human rotavirus VP8* domain recognition of histo-blood group antigens” (PLoS Pathogens, 2020)
“And” between values parts separate entries of the source, which are not always exact repeats. Identical values can stand only once. “Also recorded” adds a separate entry of the source.

Key:
[1] = tested on: P[8] VP8*; experiment: STD NMR of glycans with P[8] VP8*; assay type: binding, human RV; conditions: 283 K; 1:50 or 1:56 protein:ligand
Description: (§1) All STD NMR spectra were acquired in Shigemi Tubes (Shigemi, USA) on 600-MHz Bruker Avance III and 850-MHz Bruker Avance II NMR spectrometers equipped with conventional 5-mm HCN probes at 283 K with pulse sequence STDDIFFESGP.3. The NMR samples for P[8] VP8* were prepared as 46 μM P[8] VP8* with 2.3 mM LNDFHI (1:50 protein: ligand ratio), and 33 μM P[8] VP8* with 1.86 mM Le^b tetra-saccharide (1:56 protein: ligand ratio). The NMR samples for P[6] VP* were prepared as 46 μM P[6] with 4.6 mM LNT (1:100 protein: ligand ratio), and 46 μM P[6] with 2.3 mM LNT (1:50 protein: ligand ratio). A control sample was prepared as 40 μM GST with 2.0 mM LNDFHI (1:50 protein: ligand ratio). […] The protein resonances were saturated with a cascade of Gaussian-shaped pulses with a duration of 50 ms, with a total saturation time of 2 s and 4 s. The on resonance was chosen to selectively saturate only the proteins for each sample. […] The STD amplification factors were determined by the equation (ISTD/IO) × molar ratio, where I0 are the intensities of the signals in the reference spectrum, and ISTD are intensities that obtained by subtracting the on-resonance spectrum from the off-resonance spectrum. The normalized STD amplification percentage for epitope mapping was determined by dividing by the largest STD amplification factor for each ligand.

[2] = biological target: P[8] VP8* (BM13851) (Rotavirus A, UniProt P11193); experiment: 2D 1H-15N HSQC NMR titration of P[8] VP8* with glycans; assay type: binding, human RV; conditions: for Kd: read-out: dissociation constant (Kd), PBS buffer, global fitting
Description: Chemical shift perturbations were followed by 2D ^1H-^15N HSQC for P[8] VP8*, P[8] mutants, and P[6] VP8* upon titration of each glycan ligand. NMR data were collected with samples in PBS buffer in 5-mm Shigemi NMR tubes on 600-MHz Bruker Avance III or 850-MHz Bruker Avance II NMR spectrometers equipped with conventional 5-mm HCN probes. Samples of 0.20 mM ^15N-labeled P[8] VP8* was titrated with LNDFH I at 0, 0.020, 0.040, 0.80, 1.00, 1.20, 1.40, 1.60, 2.00, 2.80, 3.60, 4.40, 5.00 mM. The same ratio of LNDFH I was titrated to each P[8] mutant as the titration of LNDFH I to wild type P[8]. Samples of 0.31 mM ^15N-labeled P[8] VP8* was titrated with Le^b tetra-saccharide at 0, 0.031, 0.15, 0.31, 0.62, 1.24, 2.49, 4.35, 5.60, 6.84, 7.78, 8.71, 9.33 mM. Samples of 0.24 mM ^15N-labeled P[6] VP8* was titrated with LNFP I at 0, 0.024, 0.12, 0.24, 0.48, 0.96, 1.93, 3.37, 4.34, 5.30, 6.03, 6.75, 7.23, 8.44 mM. Samples of 0.33 mM ^15N-labeled P[6] VP8* was titrated with LNT at 0, 0.033, 0.17, 0.33, 0.69, 1.34, 2.67, 4.68, 6.01, 7.35, 8.35 mM. Spectra were process with NMRPipe software and analyzed with SPARKY [69]. The chemical shift changes upon titration was determined by the following formula [71]: Δδobs=1/2[δH2+(α·δN2)],δH=δHfree−δHbound,δN=δNfree−δNbound . Where δH free and δH bound are the backbone amide hydrogen chemical shifts in the absence and presence of ligand, δN free and δN bound are the amide nitrogen chemical shifts in the free and bound state. The value of Euclidean weighting correction factor α was set to 0.14 [72]. Standard deviation σ of the Euclidean chemical shift change was calculated and threshold value was chosen from 1.5σ to 2.5σ for the VP8*-HBGA by balancing the specificity and sensitivity. Amino acids with chemical shifts greater than the threshold value were used to calculate the dissociation constants. Dissociation constants were obtained by fitting the following equation: Δδobs=Δδmax{([P]t+[L]t+Kd)−[([P]t+[L]t+Kd)^2−4[P]t[L]t]^1/2}/2Pt . Where [P]t and [L]t represent the total concentrations of protein and ligand, Δδobs is the change in the observed chemical shift from the free state, Δδmax is the maximum chemical shift change on saturation, Kd represents the dissociation constant.

[3] = biological target: P[6] VP8* (BM11596) (Rotavirus A, UniProt D2DXN5); experiment: 2D 1H-15N HSQC NMR titration of P[6] VP8* with glycans; assay type: binding, human RV
Description: Chemical shift perturbations were followed by 2D ^1H-^15N HSQC for P[8] VP8*, P[8] mutants, and P[6] VP8* upon titration of each glycan ligand. NMR data were collected with samples in PBS buffer in 5-mm Shigemi NMR tubes on 600-MHz Bruker Avance III or 850-MHz Bruker Avance II NMR spectrometers equipped with conventional 5-mm HCN probes. Samples of 0.20 mM ^15N-labeled P[8] VP8* was titrated with LNDFH I at 0, 0.020, 0.040, 0.80, 1.00, 1.20, 1.40, 1.60, 2.00, 2.80, 3.60, 4.40, 5.00 mM. The same ratio of LNDFH I was titrated to each P[8] mutant as the titration of LNDFH I to wild type P[8]. Samples of 0.31 mM ^15N-labeled P[8] VP8* was titrated with Le^b tetra-saccharide at 0, 0.031, 0.15, 0.31, 0.62, 1.24, 2.49, 4.35, 5.60, 6.84, 7.78, 8.71, 9.33 mM. Samples of 0.24 mM ^15N-labeled P[6] VP8* was titrated with LNFP I at 0, 0.024, 0.12, 0.24, 0.48, 0.96, 1.93, 3.37, 4.34, 5.30, 6.03, 6.75, 7.23, 8.44 mM. Samples of 0.33 mM ^15N-labeled P[6] […] Spectra were process with NMRPipe software and analyzed with SPARKY [69]. The chemical shift changes upon titration was determined by the following formula [71]: Δδobs=1/2[δH2+(α·δN2)],δH=δHfree−δHbound,δN=δNfree−δNbound . […] Standard deviation σ of the Euclidean chemical shift change was calculated and threshold value was chosen from 1.5σ to 2.5σ for the VP8*-HBGA by balancing the specificity and sensitivity. […]

[4] = tested on: P[6] VP8*; experiment: STD NMR of glycans with P[6] VP8*; assay type: binding, human RV; conditions: 283 K
Description: as §1

[5] = tested on: P[8] VP8*; design: method as in PMID 31226167; conditions: cited from earlier work
[6] = tested on: D79A-P[8] VP8* mutant; experiment: HSQC NMR titration of D79A-P[8] mutant with LNDFH I; assay type: binding, human RV; conditions: same ligand ratio as wild type P[8]
Description: (§2) The VP8* core fragments (amino acids 64 to 223) of the human RV P[8] (BM13851) and P[6] (BM11596) with an N-terminal glutathione S-transferase (GST) tag was overexpressed in Escherichia coli BL21 (DE3) cells as previously described. The P[8] T78A, D79A, K168A, R154A, H177A, and D186A mutations were generated through overlap-extension site mutagenesis, and the sequences were confirmed at the Center for Bioinformatics and Functional Genomics (CBFG) at Miami University. Cells were grown in 1L Luria broth (LB) medium supplemented with 100 μg mL^-1 ampicillin at 310 K. When the OD600 reached 0.8, 0.5 mM isopropyl-β-D-thiogalactopyranoside was added to the medium to induce protein expression. The cell pellet was harvested within 12 h after induction and re-suspended in the phosphate-buffered saline (PBS) buffer (140 mM NaCl, 2.7 mM KCl, 10 mM Na2HPO4, 1.8 mM KH2PO4, pH 7.3). […]
(§3) Chemical shift perturbations were followed by 2D ^1H-^15N HSQC for P[8] […] Spectra were process with NMRPipe software and analyzed with SPARKY [69]. The chemical shift changes upon titration was determined by the following formula [71]: Δδobs=1/2[δH2+(α·δN2)],δH=δHfree−δHbound,δN=δNfree−δNbound . […] Standard deviation σ of the Euclidean chemical shift change was calculated and threshold value was chosen from 1.5σ to 2.5σ for the VP8*-HBGA by balancing the specificity and sensitivity. […]

[7] = tested on: K168A-P[8] VP8* mutant; experiment: HSQC NMR titration of K168A-P[8] mutant with LNDFH I; assay type: binding, human RV; conditions: same ligand ratio as wild type P[8]
Description: as §2, §3

[8] = tested on: glutathione S-transferase (GST); experiment: STD NMR negative control with GST; assay type: binding; conditions: 40 μM GST with 2.0 mM ligand
Description: as §1

[9] = tested on: R154A-P[8] VP8* mutant; experiment: HSQC NMR titration of R154A-P[8] mutant with LNDFH I; assay type: binding, human RV; conditions: same ligand ratio as wild type P[8]
Description: as §2, §3

[10] = tested on: T78A-P[8] VP8* mutant; experiment: HSQC NMR titration of T78A-P[8] mutant with LNDFH I; assay type: binding, human RV; conditions: same ligand ratio as wild type P[8]
Description: as §2, §3

[11] = tested on: D186A-P[8] VP8* mutant; experiment: HSQC NMR titration of D186A-P[8] mutant with LNDFH I; assay type: binding, human RV; conditions: same ligand ratio as wild type P[8]
Description: as §2, §3

[12] = tested on: H177A-P[8] VP8* mutant; experiment: HSQC NMR titration of H177A-P[8] mutant with LNDFH I; assay type: binding, human RV; conditions: same ligand ratio as wild type P[8]
Description: as §2, §3

| Structure (SMILES) | binding to P[8] VP8* by STD NMR [1] | Kd [2] | Kd [3] [mM] | binding to P[6] VP8* by STD NMR [4] | also measured |
| --- | --- | --- | --- | --- | --- |
| CC(=O)NC1C(O)OC(CO)C(OC2OC(C)C(O)C(O)C2O)C1OC1OC(CO)C(O)C(O)C1OC1OC(C)C(O)C(O)C1O (stereo not drawn) [Le^b tetra-saccharide, Fucα1-2Galβ1–3[Fucα1–4]GlcNAc] | found to bind | 20.3 ± 4.8 mM | – | – | – |
| CC(=O)NC1C(OC2C(O)C(CO)OC(OC3C(CO)OC(O)C(O)C3O)C2O)OC(CO)C(O)C1OC1OC(CO)C(O)C(O)C1O (stereo not drawn) [LNT, lacto-N-tetraose] | – | – | 2.5 ± 0.2 | bound | binding to P[8] VP8* in HSQC titration [2]: little binding signal; also recorded: did not recognize |
| CC(=O)N[C@H]1C(O)O[C@H](CO)[C@@H](O)[C@@H]1O[C@@H]1O[C@H](CO)[C@H](O)[C@H](O)[C@H]1O (stereo partly drawn) [lacto-N-biose] | – | – | – | – | affinity relative to H1 trisaccharide [5]: two-fold weaker affinity |
| CC(=O)NC1C(OC2C(O)C(CO)OC(OC3C(CO)OC(O)C(O)C3O)C2O)OC(CO)C(O)C1OC1OC(CO)C(O)C(O)C1OC1OC(C)C(O)C(O)C1O (stereo not drawn) [LNFP I, lacto-N-fucopentaose I] | – | 23.5 mM | 13.6 ± 1.7 | bound | – |
| CC(=O)NC1C(OC2C(O)C(CO)OC(OC3C(CO)OC(O)C(O)C3O)C2O)OC(CO)C(OC2OC(C)C(O)C(O)C2O)C1OC1OC(CO)C(O)C(O)C1OC1OC(C)C(O)C(O)C1O (stereo not drawn) [LNDFH I, lacto-N-difucohexaose I] | found to bind | 6.3 mM and 6.29 mM | – | – | binding to D79A-P[8] mutant [6]: retained binding to the glycan; binding to K168A-P[8] mutant [7]: retained binding to the glycan; STD NMR signal with GST (negative control) [8]: did not show significant signal intensities; binding to R154A-P[8] mutant [9]: significant loss of binding to the glycan; binding to T78A-P[8] mutant [10]: retained binding to the glycan; binding to D186A-P[8] mutant [11]: significant loss of binding to the glycan; binding to H177A-P[8] mutant [12]: significant loss of binding to the glycan |
